Data reported in publication PMC7665192, “A natriuretic peptide from Arabidopsis thaliana (AtPNP-A) can modulate catalase 2 activity” (Scientific Reports, 2020).
Positions of bridges follow the written chain, without caps; N, C: chain ends. Residues, ends and D or L forms follow the SMILES beside them. *: point of attachment. Biotin = O=C1N[C@H]2[C@H](CS[C@H]2CCCCC(=O)*)N1

What was measured:
CAT2 = test: Zymogram of CAT isoforms from treated seedlings; type: in vivo, Arabidopsis thaliana; conditions: 1 nM peptide, sprayed 20 min before harvesting; mean ± SD, n = 3, Student's t-test P < 0.05
Experimental: Enzymatic activity of CAT isozymes and total CAT activities of protein extracted from WT and atpnp-a or cat2-2 mutant lines, when indicated sprayed with 1 nM pAtPNP-A or pScr 20 min before harvesting, were determined zymographically and spectrophotometrically, as described in[56]. Relative quantification of intensity of bands corresponding to different CAT isoforms was performed with ImageJ version 1.48 (https://imagej.nih.gov/ij/). Enzymatic activity of the rCAT2 in the presence of absence of 100 nM rAtPNP-A, pAtPNP-A or pScr were determined with the use of Amplex Red catalase assay kit (Invitrogen) according to the manufacturer’s instructions.
Figure 3 AtPNP-A directly interacts with CAT2 to modulate its enzymatic activity in vitro. (a) Zymogram depicting changes in the enzymatic activity of CAT isoforms extracted from wild type (WT) or cat2-2 knockout mutant seedlings in response to 1 nM pAtPNP-A or pScr. Densitometric semi-quantification of bands corresponding to CAT2, normalized to the loading control (dark-coloured band on zymogram) for WT samples treated with 1 nM pAtPNP-A or pScr (mean ± SD, Student’s t-test, n = 3, P < 0.05). […] (b) Total CAT activity in protein extracted from WT seedlings assayed with Amplex Red catalase assay kit in the presence of 1 nM pAtPNP-A, rAtPNP-A, or pScr. […] (c) Enzymatic activity of rCAT2 in the presence of 100 nM pAtPNP-A, rAtPNP-A, or pScr.

CAT2 recombinant (rCAT2) = test: SPR, rCAT2 immobilized on NTA chip; type: binding, Arabidopsis thaliana; conditions: His-tagged rCAT2 immobilized at app. 4,500 RU, analytes at the same concentration, 20 °C
Experimental: N-terminally 6xHis-tagged AtPNP-A and CAT2 proteins were expressed in BL21 (DE3) One Shot E. coli cells (Life Technologies), purified by affinity chromatography with Ni–NTA beads (Qiagen) and HisTrap HP column (GE Healthcare Lifesciences) as described in[21]. The purity of preparations was verified on 12.5% SDS-PAGE, stained with Coomassie Brilliant Blue (Bio-Rad). Protein identities were confirmed in MS analysis, and protein concentration was determined according to the method of Bradford using BSA as a standard.
SPR experiments were performed at 20 °C on Biacore T100 instrument operated using Biacore T100 control software (version 2.0.2, GE Healthcare Lifesciences) using Series S CM5 or NTA sensor chips as described in[21]. […]
Figure 2 AtPNP-A directly interacts with Arabidopsis CAT2 and bovine liver CAT in vitro. […] The models were analyzed and visualized using UCSF Chimera (version 1.10.2; https://www.cgl.ucsf.edu/chimera/)[55]. […]

leaf discs of WT plants = test: Oxidative burst (ROS) in leaf discs; design: species or system Arabidopsis thaliana; conditions: leaf discs pre-treated with 100 nM rAtPNP-A for 30 min, then 1 μM flg22, luminol luminescence, 1 h, n = 11–12, P < 0.01
Experimental: Leaf discs (0.196 cm[2]) of 4-week-old WT plants were incubated overnight floating on 0.1 mL water in 96-well titer plate, with one disc per well. The following day the leaf discs were pre-treated with 100 nM rAtPNP-A or mock for 30 min. For ROS detection horseradish peroxidase and luminol (Sigma-Aldrich) were added to a final concentration of 10 μg mL^−1 and 100 μM, respectively. Luminescence was measured directly after addition of either 1 μM of flg22 or 100 nM rAtPNP-A in a MicroLumat LB96P plate reader (Berthold Technologies) for 1 h and is shown in relative light units.
Supplementary Figure S2. AtPNP-A participates in plant immunity.
Kinetics of ROS production after treatment of leaf discs with 1 μM flg22 with or without pre-treatment with 100 nM recombinant AtPNP-A (rAtPNP-A), or after treatment with rAtPNP-A only. Data are shown as mean ± SEM (two-way repeated measure ANOVA followed by Tukey’s multiple comparison test, n = 11 – 12, * P < 0.01). Total production of ROS during 60 min after treatment with rAtPNP-A, flg22, or flg22 and rAtPNP-A pre-treatment is shown as median ± SD (one-way ANOVA and Tukey-Kramer multiple comparison test, n = 11 – 12, P < 0.01) with statistically significant differences indicated by different letters.
(1 picture or pasted object on this page, not shown here)

cGMP = conditions: cited from earlier work
Text: Similarly, identification of novel receptors targeted by an increasing number of peptidic plant hormones discovered in the last few decades[8],[9] is anticipated. One of those, the plant natriuretic peptides (PNPs), are a group of systemically mobile signals[10] that have a role in the maintenance of salt and water balance[11],[12]. An A. thaliana PNP, termed AtPNP-A (At2g18660; Q9ZV52), has been implicated in several physiological processes ranging from the regulation of stomatal aperture, osmoticum-dependent volume changes[13],[14] and modulation of developmental stage- and tissue-specif ... || A PNP_CAT interaction in plant responses to infecting pathogens is not surprising. CATs commonly function to down-regulate ROS during ABA-induced stomatal closure, and ABA-induced stomatal closure can be inhibited by removal of H2O2 via CAT2[73],[74]. […] Therefore, it is tempting to speculate that AtPNP-A modulates the effect of ABA on stomatal aperture through the interaction w ...

| Compound | CAT2 activity in WT plants (zymogram) (CAT2) | SPR binding response to rCAT2 (CAT2 recombinant (rCAT2)) | Effect on flg22-induced oxidative burst (leaf discs of WT plants) | Effect on flg22-induced oxidative burst (leaf discs of WT plants; listed as AtPNP) | Effect on flg22-induced oxidative burst (leaf discs of WT plants; listed as PNP) | Elevation of cGMP (cGMP) |
| --- | --- | --- | --- | --- | --- | --- |
| CC(C)C[C@@H]1NC(=O)[C@H](CC(N)=O)NC(=O)[C@H](CC(N)=O)NC(=O)[C@H](CCCCN)NC(=O)[C@H](C(C)C)NC(=O)CNC(=O)[C@H](C(C)C)NC(=O)[C@H](C(C)C)NC(=O)[C@H](CC(C)C)NC(=O)[C@H]([C@@H](C)O)NC(=O)[C@H](CCC(=O)O)NC(=O)[C@H](CCCNC(=N)N)NC(=O)[C@H](CCC(N)=O)NC(=O)[C@H]([C@@H](C)O)NC(=O)CNC(=O)[C@H](Cc2ccc(O)cc2)NC(=O)[C@@H](NC(=O)[C@H](C)NC(=O)[C@H](CO)NC(=O)[C@H](CCCNC(=N)N)NC(=O)[C@@H](NC(=O)[C@H](Cc2ccc(O)cc2)NC(=O)[C@@H]2CCCN2)[C@@H](C)O)CSSC[C@@H](C(=O)NCC(=O)N[C@@H](CCCNC(=N)N)C(=O)N[C@@H](CCCNC(=N)N)C(=O)N[C@@H](Cc2ccc(O)cc2)C(=O)N[C@@H](CCCNC(=N)N)C(=O)N[C@H](C(=O)N[C@@H](CCCNC(=N)N)C(=O)N[C@@H](CCCCNC(=O)CCCC[C@@H]2SC[C@@H]3NC(=O)N[C@@H]32)C(=O)O)C(C)C)NC(=O)[C@H](C)NC(=O)[C@H](CCCNC(=N)N)NC(=O)CNC(=O)[C@H](CC(N)=O)NC(=O)[C@H](CCC(N)=O)NC(=O)[C@H](Cc2c[nH]c3ccccc23)NC1=O [pAtPNP-A] (H-PYTRSACYGTQRETLVVGVKNNLWQNGRACGRRYRVRK(Biotin)-OH; disulfide 7-30; N-terminus and C-terminus assumed) | increased CAT2 activity in WT plants compared to the mutants | significant accumulation of the biologically active analyte |  |  |  |  |
| AtPNP-A: An A. thaliana PNP, termed AtPNP-A (At2g18660; Q9ZV52) |  |  | enhanced flg22-induced oxidative burst | enhances responses to flg22 | enhances oxidative burst | rapid elevation of 3′,5′-cyclic guanosine monophosphate (cGMP) |
